How the values were obtained:
[1] = molecular target: HeV F and HeV G glycoproteins (Hendra virus, UniProt O89342); format: cell-based
[2] = molecular target: NiV F and NiV G glycoproteins (Nipah virus, UniProt Q9IH63); format: cell-based
Sequence of NiV F and NiV G glycoproteins (Q9IH63 110-546 limits assumed): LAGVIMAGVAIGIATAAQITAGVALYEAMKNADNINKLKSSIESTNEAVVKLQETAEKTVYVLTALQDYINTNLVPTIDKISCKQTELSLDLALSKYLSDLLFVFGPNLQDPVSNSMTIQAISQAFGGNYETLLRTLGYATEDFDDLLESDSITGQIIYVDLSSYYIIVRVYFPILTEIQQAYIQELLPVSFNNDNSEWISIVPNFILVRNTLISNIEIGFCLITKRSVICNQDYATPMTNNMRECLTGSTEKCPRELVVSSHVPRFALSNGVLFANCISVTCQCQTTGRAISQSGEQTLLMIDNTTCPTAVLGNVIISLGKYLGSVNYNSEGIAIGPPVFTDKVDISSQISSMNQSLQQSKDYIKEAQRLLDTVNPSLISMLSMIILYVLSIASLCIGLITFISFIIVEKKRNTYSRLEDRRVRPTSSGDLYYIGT
Sequence of NiV F and NiV G glycoproteins (Q9IH63 27-109 partner limits assumed): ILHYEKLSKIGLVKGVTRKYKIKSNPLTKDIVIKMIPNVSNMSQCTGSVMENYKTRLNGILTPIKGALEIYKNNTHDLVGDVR

Sequence of HeV F and HeV G glycoproteins (O89342 110-546 limits assumed): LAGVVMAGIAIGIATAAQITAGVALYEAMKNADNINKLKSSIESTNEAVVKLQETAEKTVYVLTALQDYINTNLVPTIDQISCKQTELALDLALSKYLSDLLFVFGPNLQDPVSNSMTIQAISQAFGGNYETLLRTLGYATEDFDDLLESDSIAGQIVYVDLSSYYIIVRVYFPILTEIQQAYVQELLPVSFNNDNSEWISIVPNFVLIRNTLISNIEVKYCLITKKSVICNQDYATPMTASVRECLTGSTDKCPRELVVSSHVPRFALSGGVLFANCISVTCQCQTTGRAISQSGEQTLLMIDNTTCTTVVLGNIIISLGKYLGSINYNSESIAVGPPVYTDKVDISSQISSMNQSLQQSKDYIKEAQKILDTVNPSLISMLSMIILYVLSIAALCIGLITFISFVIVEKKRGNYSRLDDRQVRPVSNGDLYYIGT
Sequence of HeV F and HeV G glycoproteins (O89342 27-109 partner limits assumed): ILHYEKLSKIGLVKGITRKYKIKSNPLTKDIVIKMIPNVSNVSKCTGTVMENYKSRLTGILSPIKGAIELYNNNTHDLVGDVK

| Compound | reduction of activity versus N-PEG-NiV FC2 [1] | reduction of activity versus N-PEG-NiV FC2 [2] | inhibitory effect on cell-fusion (in words) [1] | inhibitory effect on cell-fusion (in words) [2] | effect on virus infection (in words) (live HeV) | syncytial morphology and size (in words) (live HeV) | effect on virus infection (in words) (live NiV) | syncytial morphology and size (in words) (live NiV) |
| --- | --- | --- | --- | --- | --- | --- | --- | --- |
| CC[C@H](C)[C@H](NC(=O)[C@H](Cc1ccc(O)cc1)NC(=O)[C@H](CC(=O)O)NC(=O)[C@H](CCCCN)NC(=O)[C@H](CO)NC(=O)[C@H](CCC(N)=O)NC(=O)[C@H](CCC(N)=O)NC(=O)[C@H](CC(C)C)NC(=O)[C@H](CO)NC(=O)[C@H](CCC(N)=O)NC(=O)[C@H](CC(N)=O)NC(=O)[C@H](CCSC)NC(=O)[C@H](CO)NC(=O)[C@H](CO)NC(=O)[C@@H](NC(=O)[C@H](CCC(N)=O)NC(=O)[C@H](CO)NC(=O)[C@H](CO)NC(=O)[C@@H](NC(=O)[C@H](CC(=O)O)NC(=O)[C@@H](NC(=O)[C@H](CCCCN)NC(C)=O)C(C)C)[C@@H](C)CC)[C@@H](C)CC)C(=O)N[C@@H](CCCCN)C(=O)N[C@@H](CCC(=O)O)C(=O)N[C@@H](C)C(=O)N[C@@H](CCC(N)=O)C(=O)N[C@@H](CCCNC(=N)N)C(=O)N[C@@H](CC(C)C)C(=O)N[C@@H](CC(C)C)C(=O)N[C@@H](CC(=O)O)C(=O)N[C@H](C(=O)N[C@H](C(=O)N[C@@H](CC(N)=O)C(=O)N1CCC[C@H]1C(=O)N[C@@H](CO)C(=O)N[C@@H](CC(C)C)C(=O)NCCOCCOCCOCCOCCOCCOCCOCCOCCOCCOCCOCCOCCC(=O)O)C(C)C)[C@@H](C)O [C-PEG NiV FC2] | approximately 20 fold | approximately 20 fold |  |  |  |  |  |  |
| Ac-KQSSMISLQSQKSINSLPSQIRDYVQKTVLLAEDND-NH2 [capped-ScNiV FC2] |  |  | no inhibitory effect | no inhibitory effect |  |  |  |  |
| KQSSMISLQSQKSINSLPSQIRDYVQKTVLLAEDND [C-PEG-ScNiV FC2, reference compound] |  |  | no inhibitory activity | no inhibitory activity | no effect at any concentration tested | identical to those observed in the absence of any peptide | no effect at any concentration tested | identical to those observed in the absence of any peptide |
